From PMC10672842, “Anti-Trypanosoma cruzi Activity, Mutagenicity, Hepatocytotoxicity and Nitroreductase Enzyme Evaluation of 3-Nitrotriazole, 2-Nitroimidazole and Triazole Derivatives” (Molecules, 2023)

Assays:
[1] = system: T. cruzi nitroreductase enzyme (TcNTR); assay: Kinetic assay with Trypanosoma cruzi nitroreductase enzyme (NADH oxidation); assay type: biochemical; conditions: for Kobs Deriv./Kobs BZN 25 µM: 25 µM derivative; for Kobs Deriv./Kobs BZN 25 µM / Kobs Deriv./Kobs BZN 50 µM: ratio of mean Kobs to BZN; for Kobs Deriv./Kobs BZN 50 µM: 50 µM derivative
Protocol: To determine a potential mechanism of action, nitroazole derivatives 5, 6, 8 and 9 were evaluated as substrates of the T. cruzi nitroreductase enzyme (TcNTR) and compared to BZN, the reference prodrug (Table 2). The enzymatic activity was measured by monitoring the oxidation of NADH, the first substrate of the enzyme, via spectrophotometric assays. […] At a concentration of 25 µM, derivatives 5 and 8 were metabolized at rates 2.3 and 2.6 times higher than that of BZN, respectively. At 50 µM, the compounds presented metabolism rates 1.6 and 3.0 times higher than that of BZN, respectively.
The protocols for expressing, purifying and conducting kinetic analysis with the recombinant TcNTR enzyme were adapted from the methods originally developed by Shane Wilkinson, with certain modifications.
For the kinetics assays, it was prepared a 200 μL solution which included 50 mM Tris-Base at pH 7.5, with a constant concentration of both NADH (50 μM) and the substances 5, 6, 8, 9 or BZN. Specifically, two distinct fixed concentrations (25 and 50 μM) of the substances 5, 6, 8, 9 or BZN were tested. These prepared mixtures were then incubated for 5 min at room temperature. Subsequently, the reaction was initiated by adding NTR to achieve a final concentration of 10 μg/mL. The reaction rates were monitored using a Hitachi U-2900 spectrophotometer, measuring the consumption of the primary substrate, NADH (λ = 340 nm; ε = 6.220 M^−1 cm^−1), over a 2-min interval. The resulting data curves were analyzed through linear regression using OriginPro 2016 software. To evaluate the reaction rate (Kobs) obtained from the 25 and 50 μM concentrations of each substrate, comparisons were made with the reference values for BZN. Measurement errors were calculated using the formula: Error = Z × σ/√n, where ‘Z’ denotes the critical value, ‘σ’ represents the standard deviation and ‘n’ is the number of test measurements, which were performed at least in triplicate.

in vitro = assay type: cell-based; conditions: human
Protocol: The Lactate Desidrogenase (LDH) Cytotoxicity Detection Kit^PLUS and the Cell Proliferation Reagent WST-1 assays were performed according to the manufacturer’s protocols. The human hepatocellular carcinoma cell line HepG2 was cultured in T25/175 cm^2 flasks with Dulbecco’s modified Eagle’s medium (DMEM, Gibco BRL) supplemented with 10% fetal bovine serum, 3.7 g/L sodium bicarbonate and 100 µg/mL penicillin–streptomycin under standard conditions (37 ± 1 °C, 95% relative humidity and 5% CO2). Cells were split using trypsin-EDTA (0.05%) with phenol red solution (Gibco BRL) and seeded in a 96-well flat-bottomed plate at a density of 1 × 10^4 cells/well. After overnight incubation, the cells were washed with 1X PBS, and the medium was replaced with different compound dilutions (0–5000 µM) in fresh medium (100 µL) followed by 24 h of incubation. DMSO 1% was used as the negative control, and Triton X-100 4% was used as the positive control. For the LDH assay, after treatment, 50 µL of supernatant from each well was transferred to a 96-well flat-bottomed plate, and 50 µL of freshly prepared reaction mixture was added to each well. After 10 min of incubation in the dark at room temperature, 25 µL of stop solution was added to each well, and the absorbance was measured at 492 nm on a microplate reader (Polaris, Celer, MG, Brazil). For the WST-1 assay, after exposure, the supernatant was replaced by 100 µL of WST-1 2% in fresh medium and incubated for 3 h in the dark under standard conditions. The absorbance was measured at 440 nm. […] For cytotoxicity assays, significant differences between the groups were analyzed by one-way ANOVA and Tukey’s post hoc tests (p < 0.01).

S. typhimurium TA98 = assay: Salmonella reverse mutation assay (Ames test, preincubation), TA98
Protocol: The compounds were tested in a reverse mutation assay preincubation protocol in the absence and presence of metabolic activation following standard protocols previously proposed by Maron and Ames. The histidine-dependent (his^−) strains TA98 and TA100 of Salmonella typhimurium were inoculated in 10 mL of Oxoid nutrient broth No. 2 containing 25 µg/mL ampicillin and incubated overnight (15–18 h) at 37 ± 1 °C on an orbital shaker (CT-712, Cientec, Belo Horizonte, MG, Brazil) at 150 rpm, obtaining a concentration of 1–2 × 10^9 cells/mL, confirmed by titration in nutrient agar plates. Briefly, 100 µL of stationary growth cultures of each strain were preincubated for 20 min on an orbital shaker (150 rpm) at 37 ± 1 °C, with 500 µL of 0.2 M phosphate buffer pH 7.4, or 500 µL of S9 mix 4% (Molecular Toxicology, Baltimore, MD, USA), and 100 µL of compound dilutions (0–5000 µM) or controls. DMSO 1% was used as a negative control. […] After incubation, 2 mL of top agar (0.7% agar, 0.5% NaCl, 0.05 mM L-histidine and D-biotin) at 45 ± 3 °C was added and gently mixed. The final mixture was poured on glucose minimal agar plates (1.5% agar, 10 g/L MgSO4·7H2O; 100 g/L of C6H8O7·H2O; 500 g/L K2HPO4; 175 g/L Na(NH4)HPO4·4H2O, 2% glucose) and incubated for 72 h at 37 ± 1 °C. The results were expressed as the mean of revertant colonies (His^+) per plate, standard deviation (SD) and mutagenicity induction fold (IF), calculated as the ratio between the number of colonies in the test group and the number of colonies in the negative control group. Mutagenic potency was calculated as the slope of the linear portion of the concentration–response function and expressed as revertants/µM. All assays were performed in triplicate and repeated at least two times. Statistical analyses were carried out in GraphPad Prism software (version 5.00, GraphPad Software, Boston, MA, USA).

SMILES | Kobs Deriv./Kobs BZN 25 µM [1] | CC50 at 24 h (in vitro) [µM] | CC50 at 48 h (in vitro) [µM] | IF (induction factor) (S. typhimurium TA98; TA98, +S9, 0.5 µM) | revertant His+ colonies, mean ± SD (S. typhimurium TA98; TA98, +S9, 0.5 µM) | IF (induction factor) (S. typhimurium TA98; TA98, +S9, 5 µM) | revertant His+ colonies, mean ± SD (S. typhimurium TA98; TA98, +S9, 5 µM) | IF (induction factor) (S. typhimurium TA98; TA98, +S9, 50 µM) | revertant His+ colonies, mean ± SD (S. typhimurium TA98; TA98, +S9, 50 µM) | IF (induction factor) (S. typhimurium TA98; TA98, +S9, 500 µM) | revertant His+ colonies, mean ± SD (S. typhimurium TA98; TA98, +S9, 500 µM) | IF (induction factor) (S. typhimurium TA98; TA98, +S9, 5000 µM) | revertant His+ colonies, mean ± SD (S. typhimurium TA98; TA98, +S9, 5000 µM) | IF (induction factor) (S. typhimurium TA98; TA98, −S9, 0.5 µM) | revertant His+ colonies, mean ± SD (S. typhimurium TA98; TA98, −S9, 0.5 µM) | IF (induction factor) (S. typhimurium TA98; TA98, −S9, 5 µM) | revertant His+ colonies, mean ± SD (S. typhimurium TA98; TA98, −S9, 5 µM) | IF (induction factor) (S. typhimurium TA98; TA98, −S9, 50 µM) | revertant His+ colonies, mean ± SD (S. typhimurium TA98; TA98, −S9, 50 µM) | revertant His+ colonies, mean ± SD (S. typhimurium TA98; TA98, −S9, 500 µM) | further results
O=[N+]([O-])c1ncn(CC(O)c2ccc(F)cc2F)n1 (stereo not drawn) [Compound 8, 1-(2,4-Difluorophenyl)-2-(3-nitro-1H-1,2,4-triazol-1-yl)ethanol] | 2.6 | > 500 | 426 ± 66 | 1.0 | 24 ± 2 | 1.0 | 24 ± 7 | 1.0 | 23 ± 3 | 1.0 | 24 ± 5 | 1.1 | 26 ± 1 | 0.9 | 23 ± 4 | 0.9 | 23 ± 1 | 1.1 | 30 ± 3 | Cytotoxic | consumption rate by TcNTR, times higher than that of 9 ([1]; 25 µM): 3.4; consumption rate by TcNTR, times higher than that of 5 ([1]; 50 µM): 1.8; Kobs Deriv./Kobs BZN 50 µM [1]: 3.0; Mutagenicity in the Ames test (verdict) (S. typhimurium TA98; TA98, absence or presence of metabolic activation): not mutagenic
O=C(Cn1ccnc1[N+](=O)[O-])NCc1ccccc1 [BZN, benznidazole, reference compound] | – | > 500 | > 500 | 0.9 | 21 ± 2 | 0.9 | 17 ± 2 | 0.7 | 18 ± 1 | 1.3 | 31 ± 6 | 1.4 | 33 ± 4 | 1.1 | 28 ± 6 | 1.1 | 28 ± 4 | 1.1 | 28 ± 2 | 37 ± 5 | Kobs ([1]; 25 µM Derivative + 50 µM NADH): 0.36 µmol of oxidized NADH/min/mg TcNTR; Kobs ([1]; 50 µM Derivative + 50 µM NADH): 0.36 µmol of oxidized NADH/min/mg TcNTR; CC50 at 72 h (in vitro): > 500 µM; IF (induction factor) (S. typhimurium TA98; TA98, −S9, 500 µM): 1.4; IF (induction factor) (S. typhimurium TA98; TA98, −S9, 5000 µM): 2.5; revertant His+ colonies, mean ± SD (S. typhimurium TA98; TA98, −S9, 5000 µM): 67 ± 4
O=[N+]([O-])c1nccn1CC(O)c1ccc(F)cc1F (stereo not drawn) [Compound 9, 1-(2,4-Difluorophenyl)-2-(2-nitro-1H-imidazol-1-yl)ethanol] | 0.8 | > 500 | > 500 | 0.8 | 18 ± 2 | 0.8 | 18 ± 2 | 0.9 | 22 ± 8 | 1.0 | 24 ± 5 | 1.2 | 28 ± 2 | 0.7 | 18 ± 6 | 0.7 | 18 ± 2 | 1.1 | 29 ± 3 | 49 ± 5 | consumption rate by TcNTR, times higher than that of 6 ([1]; 50 µM): 4.9; Kobs Deriv./Kobs BZN 50 µM [1]: 1.2; CC50 at 72 h (in vitro): > 500 µM; IF (induction factor) (S. typhimurium TA98; TA98, −S9, 500 µM): 1.8; IF (induction factor) (S. typhimurium TA98; TA98, −S9, 5000 µM): 6.5; revertant His+ colonies, mean ± SD (S. typhimurium TA98; TA98, −S9, 5000 µM): 173 ± 21
